Measurements reported in patent publication US10501493B2, “Broad spectrum antibiotics” (priority 2011, dated 2019).
Converted amounts (≈) assume the structure as drawn.

Tests used:
[1] = tested on: E. coli ATCC 25922; experiment: In vitro antimicrobial activity, MIC by broth micro-dilution; type: cell-based; details: Escherichia coli, ATCC25922; read-out: MIC class, E. coli ATCC 25922
Method: (§1) In vitro antimicrobial activity of each compound was determined by measuring minimal inhibitor concentrations (MICs) using the broth micro-dilution technique as approved by the Clinical and Laboratory Standards Institute (CLSI). The microbiological panel examined contains a number of bacterial species including E. coli MG1655, P. aeruginosa, S. aureus, and S. epidermidis. In addition, the panel includes previously described pseudo-isogenic strains of these four species (P. A. Smith et al. Chem Biol 2010, 1223-1231), in which a specific proline residue in SPase (called LepB in Gram-negative organisms an SpsB in Gram-positive organisms) has been mutated to a different amino acid. The resulting strains have increased susceptibility to the arylomycin class of antibiotics. Analysis of the strains lacking this proline residue will increases the dynamic range of the assay, and comparison of the sensitivities of the isogenic pairs provides ongoing confirmation that the activity gained through derivatization is specific to the inhibition of SPase. Briefly, bacterial streaks were grown on Mueller Hinton Agar II (Difco™) with or without 5% lysed horse blood for a period of 24 hours at either 35° C. or 28° C. Bacterial colonies were suspended in cation adjusted Mueller Hinton broth and diluted to a final concentration of 1*10^7 colony forming units/ml. Two-fold serial dilutions of each compound were arrayed into 96-well plates (100 μl final volume per well) and 5 ul of the bacterial suspension will be added. […] MICs were periodically checked plating serial dilutions of MIC wells and quantitatively determining viable colonies.

[2] = tested on: S. aureus NCTC-8325 SpsB(P295); experiment: as above; type: cell-based; details: Staphylococcus aureus, NCTC8325, read-out: MIC class, S. aureus NCTC-8325 SpsB(P295)
Method: as §1

[3] = tested on: S. epidermidis RP62A; experiment: as above; type: cell-based; details: Staphylococcus epidermidis, RP62A; read-out: MIC class, S. epidermidis RP62A
Method: as §1

[4] = tested on: S. pneumoniae D39; experiment: as above; type: cell-based; details: Streptococcus pneumoniae, D39; read-out: MIC class, S. pneumoniae D39
Method: as §1

[5] = tested on: E. col ATCC 25922 LepB(P84L); experiment: as above; type: cell-based, E. coli; details: Escherichia coli, ATCC25922, read-out: MIC class, E. col ATCC 25922 LepB(P84L)
Method: as §1

[6] = tested on: S. aurues NCTC-8325; experiment: as above; type: cell-based, S. aureus; details: Staphylococcus aureus, NCTC8325, read-out: MIC class, S. aurues NCTC-8325
Method: as §1

[7] = target: T1, E. coli SPase (Escherichia coli, UniProt P00803); experiment: Enzymatic fluorogenic substrate cleavage assay for IC50; type: biochemical
T1 construct: Full length His-tagged E. coli SPase proteins were expressed in E. coli BL21(DE3); His-tag; made in house; host or cells: E. coli BL21(DE3)
Method: (§2) Full length His-tagged E. coli SPase proteins were expressed in E. coli BL21(DE3) containing the plasmid pET23-lepB, P. A. Smith et al. Chem Biol 2010, 1223-1231. Briefly, saturated overnight cultures grown in 20 ml of Luria-Bertani medium supplemented with ampicillin were subcultures into 1.5 L of Luria-Bertani, and shaken at 37° C. until an optical density at 600 nm of 0.4-0.5 was achieved. Protein expression was induced with Isopropyl β-D-1-thiogalactopyranoside (ITPG) at a final concentration of […], and purified using nickel affinity chromatography. Full length His-tagged S. aureus SPase protein was expressed similarly from E. coli BL21(DE3) containing the plasmid pCDF1-SaSpsB or pCDF1-SaSpsB(P29S) and purified similarly to the E. coli protein with the following exceptions. SPase protein was solubilized using 300 mM NaCl, 20 mM Tris pH 8.06, 5 mM Imidazole, 10% glycerol, 1% Triton X-100, prior to purification in Ni-NTA Superflow resin and resin bound protein was washed in a similar buffer containing 1% Elugent in place of Triton X-100 prior to protein eluted in wash buffer supplemented with 300 mM imidazole. Protein purify was judged to exceed 95% by visual inspection of SDS-PAGE followed by Comassie staining. All protein concentrations were determined by BCA assay.
(§3) In addition to the equilibrium binding assays, compound activity is also characterized by measuring inhibition of E. coli and S. aureus substrate cleavage reactions using fluorogenic peptides developed at RQx Pharmaceuticals. Briefly, two fluorogenic peptide substrates (decanoyl-LSSPA Y^NO2 A ? ADK^abzPD (SEQ ID NO: 1) and decanyol-LTPTAY^NO2 A ? ASKK^abzDD (SEQ ID NO: 2)) have been synthesized, where abz is the fluorescence donor 2-aminobenzamide, YNO2 is the fluorescence acceptor 3-nitrotyrosine, and the cleavage site is indicated with an arrow. These substrates are processed with a second order rate constant (Kcat/KM) of 10^5 M^−1s^−1 for E. coli and S. aureus SPase enzymes, and cleavage results in a greater than 10-fold increase in fluorescence signal (excitation at 314 nm, emission at 416 nm) as measured using a SpectraMax M2 fluorescence microplate reader. Two-folder serial dilutions of compound are prepared in cleavage reaction buffer consisting of: 50 mM Tris-HCl pH 8.0, 100 mM NaCl, 10% glycerol, 1 mM EDTA, detergent (1% NP-40 or 0.1% Elugent™ for E. coli LepB or S. aureus SpsB respectively) and either 2.5 nM of E. coli SPase enzyme or 10 nM of S. aureus SPase enzyme. 40 μl aliquots of the compound dilution series in the protein/buffer solution is transferred to black 384-well polypropylene plates, and 10 μl of fluorogenic peptide at a concentration of 100 μM is added to initiate the reaction. The increase in fluorescence, corresponding to substrate cleavage, is monitored continuously at room temperature for 30 minutes and initial reaction rates are calculated based in the linear increase in fluorescence from the initial 30 minutes of the reaction. Reaction rates are plotted as a function of compound concentration, and IC50 values are determined nonlinear regression analysis (SoftMax® Pro v5.4) of the sigmoidal dose-response curve.

[8] = target: T2, S. aureus SPase (Staphylococcus aureus, UniProt P0A070); experiment: as above; type: biochemical
T2 construct: Full length His-tagged S. aureus SPase protein was expressed similarly; His-tag; made in house; host or cells: E. coli BL21(DE3)
Method: as §2, §3

Row | SMILES | MIC [1] | MIC [2] | MIC [3] | MIC [4] | MIC [5] | MIC [6] | IC50 [7] | IC50 [8]
1 | CCCCCCCCCCCCCCCC(=O)N(C)[C@H](CO)C(=O)N[C@H](C)C(=O)NCC(=O)N(C)[C@@H]1C(=O)N[C@@H](C)C(=O)N[C@H](C(=O)N[C@H](CO)C(C)O)Cc2ccc(O)c(c2)-c2cc1ccc2O (some centres unmarked) [Compound 68] | > 64 µg/mL | > 64 µg/mL | 16 to 64 µg/mL (≈ 16.5 to 66.1 µM) | 16 to 64 µg/mL (≈ 16.5 to 66.1 µM) | 16 to 64 µg/mL (≈ 16.5 to 66.1 µM) | > 64 µg/mL | 1 to 10 µM | > 10 µM
2 | CCCCCCCCCCCCCCCC(=O)N(C)[C@H](CO)C(=O)N[C@H](C)C(=O)NCC(=O)N(C)[C@@H]1C(=O)N[C@@H](C)C(=O)N[C@H](C(=O)N[C@H](CO)CCC)Cc2ccc(O)c(c2)-c2cc1ccc2O [Compound 69] | > 64 µg/mL | > 64 µg/mL | 16 to 64 µg/mL (≈ 16.6 to 66.2 µM) | 16 to 64 µg/mL (≈ 16.6 to 66.2 µM) | < 8 µg/mL | > 64 µg/mL | 1 to 10 µM | > 10 µM
3 | CCCCCCCCCCCCCCCC(=O)N(C)[C@H](CO)C(=O)N[C@H](C)C(=O)NCC(=O)N(C)[C@@H]1C(=O)N[C@@H](C)C(=O)N[C@H](C(=O)NC(CO)(CO)CO)Cc2ccc(O)c(c2)-c2cc1ccc2O [Compound 70] | > 64 µg/mL | > 64 µg/mL | < 8 µg/mL | 16 to 64 µg/mL (≈ 16.3 to 65 µM) | < 8 µg/mL | > 64 µg/mL | < 1 µM | > 10 µM
4 | CCCCCCCCCCCCCCCC(=O)N(C)[C@H](CO)C(=O)N[C@H](C)C(=O)NCC(=O)N(C)[C@@H]1C(=O)N[C@@H](C)C(=O)N[C@H](C(=O)N[C@H](CO)Cc2cnc[nH]2)Cc2ccc(O)c(c2)-c2cc1ccc2O [Compound 71] | > 64 µg/mL | > 64 µg/mL | > 64 µg/mL | 16 to 64 µg/mL (≈ 15.9 to 63.7 µM) | > 64 µg/mL | > 64 µg/mL | > 10 µM | > 10 µM
5 | CCCCCCCCCCCCCCNC(=O)N(C)[C@H](CO)C(=O)N[C@H](C)C(=O)NCC(=O)N(C)[C@@H]1C(=O)N[C@@H](C)C(=O)N[C@H](C(=O)O)Cc2ccc(O)c(c2)-c2cc1ccc2O [Compound 72] | > 64 µg/mL | 16 to 64 µg/mL (≈ 18.1 to 72.6 µM) | < 8 µg/mL | 16 to 64 µg/mL (≈ 18.1 to 72.6 µM) | < 8 µg/mL | > 64 µg/mL | < 1 µM | < 1 µM
6 | CCCCCCCCCCCCCCCC(=O)N(C)[C@H](CO)C(=O)N[C@H](C)C(=O)NCC(=O)N(C)[C@@H]1C(=O)N[C@@H](C)C(=O)N[C@H](C(=O)N[C@H](CO)Cc2c[nH]c3ccccc23)Cc2ccc(O)c(c2)-c2cc1ccc2O [Compound 74] | > 64 µg/mL | > 64 µg/mL | > 64 µg/mL | 16 to 64 µg/mL (≈ 15.2 to 60.8 µM) | > 64 µg/mL | > 64 µg/mL | 1 to 10 µM | > 10 µM
7 | CCCCCCCCCCCCCCCC(=O)N(C)[C@H](CO)C(=O)N[C@H](C)C(=O)NCC(=O)N(C)[C@@H]1C(=O)N[C@@H](C)C(=O)N[C@H](C(=O)NCC(O)C(=O)OC)Cc2ccc(O)c(c2)-c2cc1ccc2O (some centres unmarked) [Compound 75] | > 64 µg/mL | > 64 µg/mL | < 8 µg/mL | < 8 µg/mL | < 8 µg/mL | > 64 µg/mL | < 1 µM | > 10 µM
